According to BindingDB's records for doi:10.1021/jm025595i (Enanta Pharmaceuticals, 2003):
pIC50: −log10 of the molar value.

experiment: Compound was evaluated for its inhibitory activity in a calcineurin inhibition assay

Structure (SMILES)	pIC50
CC[C@@H]1NC(=O)[C@H]([C@H](O)[C@H](C)C/C=C/C(=O)O)N(C)C(=O)[C@H](C(C)C)N(C)C(=O)[C@H](CC(C)C)N(C)C(=O)[C@H](CC(C)C)N(C)C(=O)[C@@H](C)NC(=O)[C@H](C)NC(=O)[C@H](CC(C)C)N(C)C(=O)[C@H](C(C)C)NC(=O)[C@H](CC(C)C)N(C)C(=O)CN(C)C1=O [6-(5-Ethyl-11,17,26,29-tetraisobutyl-14,32-diisopropyl-1,7,10,16,20,23,25,28,31-nonamethyl-3,6,9,12,15,18,21,24,27,30,33-undecaoxo-1,4,7,10,13,16,19,22,25,28,31undecaaza-cyclotritriacont-2-yl)-6-hydroxy-5-methyl-hex-2-enoic acid]	< 5.30
CC[C@@H]1NC(=O)[C@H]([C@H](O)[C@H](C)CCCC(=O)OC)N(C)C(=O)[C@H](C(C)C)N(C)C(=O)[C@H](CC(C)C)N(C)C(=O)[C@H](CC(C)C)N(C)C(=O)[C@@H](C)NC(=O)[C@H](C)NC(=O)[C@H](CC(C)C)N(C)C(=O)[C@H](C(C)C)NC(=O)[C@H](CC(C)C)N(C)C(=O)CN(C)C1=O [6-(5-Ethyl-11,17,26,29-tetraisobutyl-14,32-diisopropyl-1,7,10,16,20,23,25,28,31-nonamethyl-3,6,9,12,15,18,21,24,27,30,33-undecaoxo-1,4,7,10,13,16,19,22,25,28,31undecaaza-cyclotritriacont-2-yl)-6-hydroxy-5-methyl-hexanoic acid methyl ester]	6.05
CC[C@@H]1NC(=O)[C@H]([C@H](O)[C@H](C)CCCC(=O)OCCF)N(C)C(=O)[C@H](C(C)C)N(C)C(=O)[C@H](CC(C)C)N(C)C(=O)[C@H](CC(C)C)N(C)C(=O)[C@@H](C)NC(=O)[C@H](C)NC(=O)[C@H](CC(C)C)N(C)C(=O)[C@H](C(C)C)NC(=O)[C@H](CC(C)C)N(C)C(=O)CN(C)C1=O [6-(5-Ethyl-11,17,26,29-tetraisobutyl-14,32-diisopropyl-1,7,10,16,20,23,25,28,31-nonamethyl-3,6,9,12,15,18,21,24,27,30,33-undecaoxo-1,4,7,10,13,16,19,22,25,28,31undecaaza-cyclotritriacont-2-yl)-6-hydroxy-5-methyl-hexanoic acid 2-fluoro-ethyl ester]	5.81
CC[C@@H]1NC(=O)[C@H]([C@H](O)[C@H](C)C/C=C/C(=O)OCCF)N(C)C(=O)[C@H](C(C)C)N(C)C(=O)[C@H](CC(C)C)N(C)C(=O)[C@H](CC(C)C)N(C)C(=O)[C@@H](C)NC(=O)[C@H](C)NC(=O)[C@H](CC(C)C)N(C)C(=O)[C@H](C(C)C)NC(=O)[C@H](CC(C)C)N(C)C(=O)CN(C)C1=O [6-(5-Ethyl-11,17,26,29-tetraisobutyl-14,32-diisopropyl-1,7,10,16,20,23,25,28,31-nonamethyl-3,6,9,12,15,18,21,24,27,30,33-undecaoxo-1,4,7,10,13,16,19,22,25,28,31undecaaza-cyclotritriacont-2-yl)-6-hydroxy-5-methyl-hex-2-enoic acid 2-fluoro-ethyl ester]	6.20
CCOC(=O)/C=C/C[C@@H](C)[C@@H](O)[C@H]1C(=O)N[C@@H](CC)C(=O)N(C)CC(=O)N(C)[C@@H](CC(C)C)C(=O)N[C@@H](C(C)C)C(=O)N(C)[C@@H](CC(C)C)C(=O)N[C@@H](C)C(=O)N[C@H](C)C(=O)N(C)[C@@H](CC(C)C)C(=O)N(C)[C@@H](CC(C)C)C(=O)N(C)[C@@H](C(C)C)C(=O)N1C [6-(5-Ethyl-11,17,26,29-tetraisobutyl-14,32-diisopropyl-1,7,10,16,20,23,25,28,31-nonamethyl-3,6,9,12,15,18,21,24,27,30,33-undecaoxo-1,4,7,10,13,16,19,22,25,28,31undecaaza-cyclotritriacont-2-yl)-6-hydroxy-5-methyl-hex-2-enoic acid ethyl ester]	6.44
CC[C@@H]1NC(=O)[C@H]([C@H](O)[C@H](C)C/C=C/C(=O)OC)N(C)C(=O)[C@H](C(C)C)N(C)C(=O)[C@H](CC(C)C)N(C)C(=O)[C@H](CC(C)C)N(C)C(=O)[C@@H](C)NC(=O)[C@H](C)NC(=O)[C@H](CC(C)C)N(C)C(=O)[C@H](C(C)C)NC(=O)[C@H](CC(C)C)N(C)C(=O)CN(C)C1=O [6-(5-Ethyl-11,17,26,29-tetraisobutyl-14,32-diisopropyl-1,7,10,16,20,23,25,28,31-nonamethyl-3,6,9,12,15,18,21,24,27,30,33-undecaoxo-1,4,7,10,13,16,19,22,25,28,31undecaaza-cyclotritriacont-2-yl)-6-hydroxy-5-methyl-hex-2-enoic acid methyl ester]	6.24
CC[C@@H]1NC(=O)[C@H]([C@H](O)[C@H](C)CCCC(=O)OCSC)N(C)C(=O)[C@H](C(C)C)N(C)C(=O)[C@H](CC(C)C)N(C)C(=O)[C@H](CC(C)C)N(C)C(=O)[C@@H](C)NC(=O)[C@H](C)NC(=O)[C@H](CC(C)C)N(C)C(=O)[C@H](C(C)C)NC(=O)[C@H](CC(C)C)N(C)C(=O)CN(C)C1=O [6-(5-Ethyl-11,17,26,29-tetraisobutyl-14,32-diisopropyl-1,7,10,16,20,23,25,28,31-nonamethyl-3,6,9,12,15,18,21,24,27,30,33-undecaoxo-1,4,7,10,13,16,19,22,25,28,31undecaaza-cyclotritriacont-2-yl)-6-hydroxy-5-methyl-hexanoic acid methylsulfanylmethylester]	< 5.30
CCOC(=O)CCC[C@@H](C)[C@@H](O)[C@H]1C(=O)N[C@@H](CC)C(=O)N(C)CC(=O)N(C)[C@@H](CC(C)C)C(=O)N[C@@H](C(C)C)C(=O)N(C)[C@@H](CC(C)C)C(=O)N[C@@H](C)C(=O)N[C@H](C)C(=O)N(C)[C@@H](CC(C)C)C(=O)N(C)[C@@H](CC(C)C)C(=O)N(C)[C@@H](C(C)C)C(=O)N1C [6-(5-Ethyl-11,17,26,29-tetraisobutyl-14,32-diisopropyl-1,7,10,16,20,23,25,28,31-nonamethyl-3,6,9,12,15,18,21,24,27,30,33-undecaoxo-1,4,7,10,13,16,19,22,25,28,31undecaaza-cyclotritriacont-2-yl)-6-hydroxy-5-methyl-hexanoic acid ethyl ester]	6.08

experiment: Compound was evaluated for its inhibitory activity in a calcineurin inhibition assay (MTM)

Structure (SMILES)	pIC50
CC[C@@H]1NC(=O)[C@H]([C@H](O)[C@H](C)C/C=C/C(=O)OCSC)N(C)C(=O)[C@H](C(C)C)N(C)C(=O)[C@H](CC(C)C)N(C)C(=O)[C@H](CC(C)C)N(C)C(=O)[C@@H](C)NC(=O)[C@H](C)NC(=O)[C@H](CC(C)C)N(C)C(=O)[C@H](C(C)C)NC(=O)[C@H](CC(C)C)N(C)C(=O)CN(C)C1=O [Cyclosporin A analogue]	5.67

experiment: Compound was evaluated for its inhibitory activity in a calcineurin inhibition assay (MOM)

Structure (SMILES)	pIC50
CC[C@@H]1NC(=O)[C@H]([C@H](O)[C@H](C)C/C=C/C(=O)OCOC)N(C)C(=O)[C@H](C(C)C)N(C)C(=O)[C@H](CC(C)C)N(C)C(=O)[C@H](CC(C)C)N(C)C(=O)[C@@H](C)NC(=O)[C@H](C)NC(=O)[C@H](CC(C)C)N(C)C(=O)[C@H](C(C)C)NC(=O)[C@H](CC(C)C)N(C)C(=O)CN(C)C1=O [6-(5-Ethyl-11,17,26,29-tetraisobutyl-14,32-diisopropyl-1,7,10,16,20,23,25,28,31-nonamethyl-3,6,9,12,15,18,21,24,27,30,33-undecaoxo-1,4,7,10,13,16,19,22,25,28,31undecaaza-cyclotritriacont-2-yl)-6-hydroxy-5-methyl-hex-2-enoic acid methoxymethyl ester]	5.72

experiment: Compound was evaluated for its inhibitory activity in a calcineurin inhibition assay (morn)

Structure (SMILES)	pIC50
CC[C@@H]1NC(=O)[C@H]([C@H](O)[C@H](C)C/C=C/C(=O)OCOC)N(C)C(=O)[C@H](C(C)C)N(C)C(=O)[C@H](CC(C)C)N(C)C(=O)[C@H](CC(C)C)N(C)C(=O)[C@@H](C)NC(=O)[C@H](C)NC(=O)[C@H](CC(C)C)N(C)C(=O)[C@H](C(C)C)NC(=O)[C@H](CC(C)C)N(C)C(=O)CN(C)C1=O [6-(5-Ethyl-11,17,26,29-tetraisobutyl-14,32-diisopropyl-1,7,10,16,20,23,25,28,31-nonamethyl-3,6,9,12,15,18,21,24,27,30,33-undecaoxo-1,4,7,10,13,16,19,22,25,28,31undecaaza-cyclotritriacont-2-yl)-6-hydroxy-5-methyl-hex-2-enoic acid methoxymethyl ester]	6.13
CC[C@@H]1NC(=O)[C@H]([C@H](O)[C@H](C)C/C=C/C(=O)OCSC)N(C)C(=O)[C@H](C(C)C)N(C)C(=O)[C@H](CC(C)C)N(C)C(=O)[C@H](CC(C)C)N(C)C(=O)[C@@H](C)NC(=O)[C@H](C)NC(=O)[C@H](CC(C)C)N(C)C(=O)[C@H](C(C)C)NC(=O)[C@H](CC(C)C)N(C)C(=O)CN(C)C1=O [Cyclosporin A analogue]	6.46
